Results as given in patent US20100267561A1, “HERBICIDAL PYRIDAZINONE DERIVATIVES” (priority 2007, published 2010).

Key:
Format in all cases: in vivo
[1] = tested on: pigweed (Amaranthus retroflexus); assay: Test A pre-/postemergence plant response
Source text: (§1) Seeds of species selected from barnyardgrass (Echinochloa crus-galli), large crabgrass (Digitaria sanguinalis), giant foxtail (Setaria faberi), blackgrass (Alopecurus myosuroides), canarygrass (Phalaris minor), morningglory (Ipomoea coccinea), pigweed (Amaranthus retroflexus), velvetleaf (Abutilon theophrasti), wheat (Triticum aestivum), and corn (Zea mays) were planted into a blend of loam soil and sand and treated preemergence with a directed soil spray using test chemicals formulated in a non-phytotoxic solvent mixture which included a surfactant. At the same time these species were also treated with postemergence applications of test chemicals formulated in the same manner.
(§2) Plants ranged in height from 2 to 10 cm and were in the one- to two-leaf stage for the postemergence treatment. Treated plants and untreated controls were maintained in a greenhouse for approximately 10 days, after which time all treated plants were compared to untreated controls and visually evaluated for injury. Plant response ratings, summarized in Table A, are based on a 0 to 100 scale where 0 is no effect and 100 is complete control. A dash (-) response means no test results.

[2] = tested on: wheat (Triticum aestivum); assay: Test A pre-/postemergence plant response
Source text: as §1, §2

[3] = tested on: corn (Zea mays); assay: Test A pre-/postemergence plant response
Source text: as §1, §2

[4] = tested on: velvetleaf (Abutilon theophrasti); assay: Test A pre-/postemergence plant response
Source text: as §1, §2

[5] = tested on: morningglory (Ipomoea coccinea); assay: Test A pre-/postemergence plant response
Source text: as §1, §2

[6] = tested on: giant foxtail (Setaria faberi); assay: Test A pre-/postemergence plant response
Source text: as §1, §2

[7] = tested on: barnyardgrass (Echinochloa crus-galli); assay: Test A pre-/postemergence plant response
Source text: as §1, §2

[8] = tested on: large crabgrass (Digitaria sanguinalis); assay: Test A pre-/postemergence plant response
Source text: as §1, §2

[9] = tested on: ducksalad (Heteranthera limosa); assay: Test B flooded paddy test plant response
Source text: (§3) Plant species in the flooded paddy test consisted of rice (Oryza sativa), umbrella sedge (Cyperus difformis), ducksalad (Heteranthera limosa) and barnyardgrass (Echinochloa crus-galli) grown to the 2-leaf stage for testing. At time of treatment, test pots were flooded to 3 cm above the soil surface, treated by application of test compounds directly to the paddy water, and then maintained at that water depth for the duration of the test. Treated plants and controls were maintained in a greenhouse for 13 to 15 days, after which time all species were compared to controls and visually evaluated. Plant response ratings, summarized in Table B, are based on a scale of 0 to 100 where 0 is no effect and 100 is complete control. A dash (-) response means no test result.

[10] = tested on: barnyardgrass (Echinochloa crus-galli); assay: Test B flooded paddy test plant response
Source text: as §3

[11] = tested on: umbrella sedge (Cyperus difformis); assay: Test B flooded paddy test plant response
Source text: as §3

[12] = tested on: rice (Oryza sativa); assay: Test B flooded paddy test plant response
Source text: as §3

[13] = Postemergence, 125 g ai/ha, 0 to 100 scale, 0 no effect, 100 complete control
[14] = Postemergence, 500 g ai/ha, 0 to 100 scale, 0 no effect, 100 complete control
[15] = Preemergence, 125 g ai/ha, 0 to 100 scale (0 no effect, 100 complete control)
[16] = Preemergence, 500 g ai/ha, 0 to 100 scale (0 no effect, 100 complete control)
[17] = Flood (flooded paddy test), 62 g ai/ha, scale 0 to 100, 0 no effect, 100 complete control
[18] = Flood (flooded paddy test), 125 g ai/ha, scale 0 to 100, 0 no effect, 100 complete control
[19] = Flood (flooded paddy test), 250 g ai/ha, scale 0 to 100, 0 no effect, 100 complete control
[20] = Flood, 31 g ai/ha, scale 0 to 100
[21] = Postemergence, 31 g ai/ha, 0 to 100 scale, 0 no effect, 100 complete control
[22] = Preemergence, 31 g ai/ha, 0 to 100 scale, 0 is no effect, 100 is complete control

## Cc1cc(-c2ccc(C(F)(F)F)cc2)nn1-c1c(O)c(C(F)(F)F)nn(C)c1=O [Compound 42]
[1]; [13]
  Plant response rating, Pigweed: 0
[1]; [14]
  Plant response rating, Pigweed: 0
[1]; [15]
  Plant response rating, Pigweed: 0
[1]; [16]
  Plant response rating, Pigweed: 0
[2]; [13]
  Plant response rating, Wheat: 0
[2]; [14]
  Plant response rating, Wheat: 10
[2]; [15]
  Plant response rating, Wheat: 0
[2]; [16]
  Plant response rating, Wheat: 0
[3]; [13]
  Plant response rating, Corn: 20
[3]; [14]
  Plant response rating, Corn: 20
[3]; [15]
  Plant response rating, Corn: 0
[3]; [16]
  Plant response rating, Corn: 0
[4]; [13]
  Plant response rating, Velvetleaf: 0
[4]; [14]
  Plant response rating, Velvetleaf: 0
[4]; [15]
  Plant response rating, Velvetleaf: 0
[4]; [16]
  Plant response rating, Velvetleaf: 0
[5]; [13]
  Plant response rating, Morningglory: 0
[5]; [14]
  Plant response rating, Morningglory: 0
[5]; [15]
  Plant response rating, Morningglory: 0
[5]; [16]
  Plant response rating, Morningglory: 0
[6]; [13]
  Plant response rating, Foxtail, Giant: 0
[6]; [14]
  Plant response rating, Foxtail, Giant: 10
[6]; [15]
  Plant response rating, Foxtail, Giant: 0
[6]; [16]
  Plant response rating, Foxtail, Giant: 0
[7]; [13]
  Plant response rating, Barnyardgrass: 0
[7]; [14]
  Plant response rating, Barnyardgrass: 0
[7]; [15]
  Plant response rating, Barnyardgrass: 0
[7]; [16]
  Plant response rating, Barnyardgrass: 0
[8]; [13]
  Plant response rating, Crabgrass, Large: 0
[8]; [14]
  Plant response rating, Crabgrass, Large: 0
[8]; [15]
  Plant response rating, Crabgrass, Large: 0
[8]; [16]
  Plant response rating, Crabgrass, Large: 0
[9]; [17]
  Plant response rating, Ducksalad: 0
[9]; [18]
  Plant response rating, Ducksalad: 0
[9]; [19]
  Plant response rating, Ducksalad: 0
[9]; [20]
  Plant response rating, Ducksalad: 0
[10]; [17]
  Plant response rating, Barnyardgrass: 0
[10]; [18]
  Plant response rating, Barnyardgrass: 0
[10]; [19]
  Plant response rating, Barnyardgrass: 0
[10]; [20]
  Plant response rating, Barnyardgrass: 0
[11]; [17]
  Plant response rating, Sedge, Umbrella: 0
[11]; [18]
  Plant response rating, Sedge, Umbrella: 0
[11]; [19]
  Plant response rating, Sedge, Umbrella: 0
[11]; [20]
  Plant response rating, Sedge, Umbrella: 0
[12]; [17]
  Plant response rating, Rice: 0
[12]; [18]
  Plant response rating, Rice: 0
[12]; [19]
  Plant response rating, Rice: 0
[12]; [20]
  Plant response rating, Rice: 0

## Cc1cc(-c2ccc(Cl)cc2)nn1-c1c(OS(=O)(=O)C2CC2)cnn(C)c1=O [Compound 49]
[1]; [21]
  Plant response rating, Pigweed: 0
[1]; [13]
  Plant response rating, Pigweed: 0
[1]; [22]
  Plant response rating, Pigweed: 0
[1]; [15]
  Plant response rating, Pigweed: 0
[2]; [21]
  Plant response rating, Wheat: 0
[2]; [13]
  Plant response rating, Wheat: 0
[2]; [22]
  Plant response rating, Wheat: 0
[2]; [15]
  Plant response rating, Wheat: 0
[3]; [21]
  Plant response rating, Corn: 0
[3]; [13]
  Plant response rating, Corn: 0
[3]; [22]
  Plant response rating, Corn: 0
[3]; [15]
  Plant response rating, Corn: 0
[4]; [21]
  Plant response rating, Velvetleaf: 0
[4]; [13]
  Plant response rating, Velvetleaf: 0
[4]; [22]
  Plant response rating, Velvetleaf: 0
[4]; [15]
  Plant response rating, Velvetleaf: 0
[5]; [21]
  Plant response rating, Morningglory: 0
[5]; [13]
  Plant response rating, Morningglory: 0
[5]; [22]
  Plant response rating, Morningglory: 0
[5]; [15]
  Plant response rating, Morningglory: 0
[6]; [21]
  Plant response rating, Foxtail, Giant: 0
[6]; [13]
  Plant response rating, Foxtail, Giant: 20
[6]; [22]
  Plant response rating, Foxtail, Giant: 0
[6]; [15]
  Plant response rating, Foxtail, Giant: 80
[7]; [21]
  Plant response rating, Barnyardgrass: 0
[7]; [13]
  Plant response rating, Barnyardgrass: 0
[7]; [22]
  Plant response rating, Barnyardgrass: 0
[7]; [15]
  Plant response rating, Barnyardgrass: 0
[8]; [21]
  Plant response rating, Crabgrass, Large: 0
[8]; [13]
  Plant response rating, Crabgrass, Large: 20
[8]; [22]
  Plant response rating, Crabgrass, Large: 0
[8]; [15]
  Plant response rating, Crabgrass, Large: 40
[9]; [17]
  Plant response rating, Ducksalad: 0
[9]; [19]
  Plant response rating, Ducksalad: 0
[9]; [20]
  Plant response rating, Ducksalad: 0
[10]; [17]
  Plant response rating, Barnyardgrass: 0
[10]; [18]
  Plant response rating, Barnyardgrass: 0
[10]; [19]
  Plant response rating, Barnyardgrass: 0
[10]; [20]
  Plant response rating, Barnyardgrass: 0
[11]; [17]
  Plant response rating, Sedge, Umbrella: 0
[11]; [18]
  Plant response rating, Sedge, Umbrella: 0
[11]; [19]
  Plant response rating, Sedge, Umbrella: 0
[11]; [20]
  Plant response rating, Sedge, Umbrella: 0
[12]; [17]
  Plant response rating, Rice: 0
[12]; [18]
  Plant response rating, Rice: 0
[12]; [19]
  Plant response rating, Rice: 0
[12]; [20]
  Plant response rating, Rice: 0
